Test results published in US20220000811A1, “COMPOSITION FOR PROMOTING HAIR GROWTH COMPRISING A GUANINE DERIVATIVE” (KOREA RESEARCH INSTITUTE OF BIOSCIENCE AND BIOTECHNOLOGY, priority 2019, published 2022).

How the values were obtained:
[1] = system: mouse embryonic fibroblasts (MEFs); assay: Reprogramming into iPSCs (OSKM) in mouse embryonic fibroblasts, AP staining; type: cell-based; conditions: for effect on reprogramming, number of AP+ colonies: MEFs, OSKM, after 14 days, indicated concentrations
Experimental: During reprogramming into iPSCs by introducing OSKM reprogramming factor into mouse embryonic fibroblasts (MEFs), rotenone, the guanidine derivatives of the present invention, and phenformin were treated at the indicated concentrations. After 14 days, alkaline phosphatase (AP) staining was performed (FIG. 2A), and the number of AP^+ colonies was quantified (FIG. 2b). […] In the subsequent experiment, additional efficacy was evaluated using only the three compounds showing the effective reprogramming-enhancing effect.

[2] = system: human foreskin fibroblast (HFFs); assay: Reprogramming into iPSCs (OSKM) in human foreskin fibroblasts, AP staining; type: cell-based; conditions: OSKM, after 28 days
Experimental: After 28 days, AP staining was performed (FIG. 3a), and the number of AP^+ colonies was quantified (FIG. 3b).

[3] = system: human embryonic stem cells (hESCs); assay: Maintaining stemness of human embryonic stem cells in unconditioned medium, AP staining; type: cell-based; conditions: hESCs in unconditioned medium, low dose
Experimental: Additionally, the effect of the compounds of the present invention on maintaining sternness of human embryonic stern cells (hESCs) was confirmed (FIG. 4). Specifically, when hESCs were cultured in an unconditioned medium (UM), the sternness was lost, and AP activity was weakened (FIG. 4a). […] In particular, when IM176OUT05 was treated at 10 nM and 100 nM concentrations, it was confirmed that the effect of maintaining the sternness was improved by 7.6 times and 8.2 times, respectively (FIG. 4b).

[4] = system: K15/β-catenin, Ki67/Shh, K15/PDK, Ki67/PDH populations; assay: FACS analysis of single skin cells; type: in vivo, mouse
Experimental: During the hair telogen phase, the hair on the dorsal skin of 7-week-old C57BL/6 mice (Dae Han BioLink, Chungbuk, Republic of Korea) was depilated using an animal clipper and wax (Veet, Oxy Reckitt Benckiser, Seoul, Republic of Korea). From the next day, 200 μL of placebo (control), 1% IM, 1% minoxidil, or 1% metformin was applied daily to the depilated area using a sterile cotton swab. Images of each animal were captured daily, and the degree of darkness of the color on dorsal skin was quantified in the same area (1.6 cm×3 cm) using the Image J program. The mice were sacrificed, and skin tissues on days 0, 7, 14, and 20 were obtained. Half of the tissues were used for RNA isolation, and the other half were fixed with 4% paraformaldehyde overnight for histochemical analysis. After the mice were perfused with PBS to remove blood, the skin tissue was harvested and cut into small pieces. The tissue was digested with trypsin (Thermo Fisher Scientific) at 37° C. for 150 minutes, then filtered through a 75 μm nylon mesh, followed by filtering through a 30 μm mesh (BD Biosciences). Single cells were fixed, permeabilized, and blocked according to the immunostaining protocol. The cells were stained with specific antibodies (Table 1 above) and analyzed with BD Accuri™ C6 (BD Biosciences)

C57BL/6 mice = assay: Hair regeneration model, darkness of dorsal skin and hair growth; type: in vivo, mouse; conditions: 1% topical daily
Experimental: During the hair telogen phase, the hair on the dorsal skin of 7-week-old C57BL/6 mice (Dae Han BioLink, Chungbuk, Republic of Korea) was depilated using an animal clipper and wax (Veet, Oxy Reckitt Benckiser, Seoul, Republic of Korea). From the next day, 200 μL of placebo (control), 1% IM, 1% minoxidil, or 1% metformin was applied daily to the depilated area using a sterile cotton swab. Images of each animal were captured daily, and the degree of darkness of the color on dorsal skin was quantified in the same area (1.6 cm×3 cm) using the Image J program. The mice were sacrificed, and skin tissues on days 0, 7, 14, and 20 were obtained. Half of the tissues were used for RNA isolation, and the other half were fixed with 4% paraformaldehyde overnight for histochemical analysis. It was confirmed whether the IM compound can promote hair growth without showing toxicity or other side effects through mouse experiments. In 7-week-old C57BL/6 mice, the telogen phase was motivated by hair removal, and various concentrations of IM were applied topically to the dorsal skin of the mice daily.

Cc1ccc(CCNC(=N)N)cc1C [IM177OUT02, 1-(3,4-dimethylphenethyl)guanide]
effect on reprogramming, number of AP+ colonies [1]: increased | concentration with the most excellent reprogramming efficacy [2]: 10 nM | AP staining (stemness) [3]: increase in AP staining

NC(=Nc1ccc(OC(F)(F)F)cc1)N=C(N)N1CCCC1 [IM156]
effect on reprogramming, number of AP+ colonies [1]: did not show an effect of promoting reprogramming

[H]/N=C(/N)N/C(=N/[H])NCCc1ccccc1 [phenformin, reference compound]
effect on reprogramming, number of AP+ colonies [1]: did not show an effect of promoting reprogramming

Nc1cc(N2CCCCC2)nc(N)[n+]1[O-] [minoxidil, reference compound]
K15+/β-catenin+ population in single skin cells ([4]; day 7, FACS): 6.0% | Ki67+/PDH+ population ([4]; day 7, FACS): 8.3% | Ki67+/Shh+ population in single skin cells ([4]; day 20, FACS): 34%

C=C(C)[C@H]1Cc2c(ccc3c2O[C@@H]2COc4cc(OC)c(OC)cc4[C@@H]2C3=O)O1 [Rotenone, reference compound]
promotion of reprogramming of somatic cells ([1]; sub-toxic dose (10 nM)): efficiently promote reprogramming

CN(C)C(=N)N=C(N)N [metformin, reference compound]
hair growth effect overall (C57BL/6 mice): did not show a remarkable effect | darkness intensity on the dorsal skin compared to control (C57BL/6 mice; from day 8): slightly was increased

N=C(N)NC(=N)NCCc1ccc(Cl)c(Cl)c1 [IM176OUT04, N-1-(3,4-dichloro)phenethylbiguanide]
effect on reprogramming, number of AP+ colonies [1]: increased | concentration with the most excellent reprogramming efficacy [2]: 10 nM | AP staining (stemness) [3]: increase in AP staining
